In US20050222250A1, “Curcumin for the prevention and/or treatment of tissue damage” (priority 2002, published 2005):

Key:
[1] = test system: radiation-induced oral mucositis (mucosal ulceration) in the tongue of rats; experiment: Radiation-induced oral mucositis in rat tongue, single dose studies (Example 2); assay type: in vivo, Sprague-Dawley rats; details: single dose irradiation of rat tongue; 0.5 ml per day oral gavage; placebo water
Excerpt: The animals were maintained, and all experimental procedures performed in compliance with the Animal (Scientific Procedures) Act 1986. While under anaesthesia the animal's tongue was slightly extended outside and a region of the underside of the tongue was irradiated in situ with single doses of 2.27 MeV β-rays from a 5 mm or 11 mm diameter ^90Sr/^90Y plaque. The dose-rate of the 5 mm ^90Sr/^90Y plaque was ˜10 Gy/min and that of 11 mm source was ˜3 Gy/min at the surface of the mucus membrane 5 mm source was used for single dose study and 11 mm source was used for fractionated studies. The irradiation was carried out by simply positioning the sealed ^90Sr/^90Y plaque in contact with the surface of the tongue. The tongue was stretched gently and radioactive source was placed with a uniform pressure in all cases in order to avoid any local hypoxia. […]
A total of 144 rats were used for this part of study. […] From the day after irradiation, until any acute radiation-induced oral mucosal lesion had healed, the animals' tongues were assessed daily for the presence of radiation-induced mucositis (mucosal ulceration) under light anaesthesia, maintained with a 1.5% Halothane, oxygen mixture. […] The dose modification factor (DMF), defined as the ratio of the dose of radiation to cause mucositis in ‘active’ agent group to that in ‘placebo’ group, was calculated. […]

[2] = test system: animals (rats, cats, dogs, pigs and monkeys); details: fed to animals over a period of 60 weeks; cited from earlier work

SMILES | Dose modification factor (DMF), active agent group vs placebo group [1] | Doses that have shown no toxicity [2]
Cc1c(C)c2c(c(C)c1O)CC[C@@](C)(CCC[C@H](C)CCC[C@H](C)CCCC(C)C)O2 [α-tocopherol, 5,7,8-trimethyltocol] | 1.05 | –
COc1cc(/C=C/C(=O)CC(=O)/C=C/c2ccc(O)c(OC)c2)ccc1O [Curcumin, diferuloylmethane] | – | 500-5000 mg/kg body weight
